The values that follow are results of earlier work, collected in patent US20030180354A1 (DR. REDDY'S LABORATORIES LIMITED, priority 2001, published 2003).

The conditions of this data set: in man.

As for `CCOC(=O)C1=C(COCCN)NC(C)=C(C(=O)OC)C1c1ccccc1Cl` (racemic) [Amlodipine, (±)-2-[(2-Aminoethoxy)methyl]-4-(2-chlorophenyl)-3-ethoxycarbonyl-5-methoxycarbonyl-6-methyl-1,4-dihydropyridine], the Oral bioavailability was 64%.
